Where two headings read alike, the source gives them in different places.
Assays:
[1] = system: BCL6 reporter construct in SuDHL4-3×BCL6-TK-Luc cells; assay: Cell-based luciferase assay (BCL6 reporter); conditions: 48 h, read-out: Luc IC50
Procedure: Cell-Based Luciferase Assay:
A BCL6 reporter construct containing three copies of the consensus BCL6 binding site, the TK promoter, and the firefly luciferase gene was stably expressed in SuDHL4 cells after lentivirus infection and selection with Blasticidin. SuDHL4-3×BCL6-TK-Luc cells were seeded into a Viewplate 384-well assay dish at 15,000 cells/well in […] (Alpha-MEM high glucose containing 10% FBS, 25 mM HEPES, […] GlutaMAX, 100 µg/mL Normocin, and […] Gentamycin, Invitrogen). A HP D300 digital dispenser was used to dose cells with DMSO or test compounds across a 10-point range of concentrations (high dose of 10 μM), and cultures were grown in a humidified 5% CO2 incubator at 37° C. After two days, plates were removed from the incubator and equilibrated to room temperature. An equal volume of neolite reporter gene assay reagent was added to each well, and samples were processed according to the manufacturer's instructions (Perkin Elmer). The luminescent signal was measured using an Envision plate reader equipped with a US-Luminescence detector.

[2] = biological target: BCL6 BTB domain (biotin-thrombin-BCL6 amino acids 1-129) (Homo sapiens (Human), UniProt P41182); assay: Surface Plasmon Resonance (SPR) assay; format: binding; conditions: Biacore T200, single cycle kinetic analysis
Procedure: Surface Plasmon Resonance (SPR) Assay
SPR studies were performed using a Biacore™ T200 instrument (GE Health Sciences Inc.). […] The Biacore flow rate was set at 100 μl/min. […] Curve fitting and KD calculations were performed with the Biacore T200 Evaluation software (GE Health Sciences Inc).

Karpas422 cells = assay: Tumor cell growth inhibition assay; format: cell-based; conditions: Homo sapiens, KARPAS-422, 144 h, read-out: GI Karpas EC50
Procedure: Tumor Cell Growth Inhibition Assay:
Karpas422 cells were seeded into a 96-well plate at 2,000 cells/well in 150 μl medium (Alpha-MEM containing 10% FBS, […] Normocin, and […] Gentamycin, Invitrogen). A HP D300 digital dispenser was used to dose cells with DMSO or test compounds across a 10-point range of concentrations (high dose of 5 μM), and cultures were grown in a humidified 5% CO2 incubator at 37° C. After six days, plates were removed from incubator and equilibrated to room temperature. An equal volume of ATPlite assay reagent was added to each well, and samples were processed according to the manufacturer's instructions (Perkin Elmer). The luminescent signal was measured using an Envision plate reader equipped with a US-Luminescence detector.

[3] = SuDHL4-3×BCL6-TK-Luc cells, two days
[4] = Karpas422 cells, six days, ATPlite

| Structure (SMILES) | IC50 [1, 3] | Kd [2] | EC50 (Karpas422 cells; [4]) | IC50 [1] | EC50 (Karpas422 cells) |
| --- | --- | --- | --- | --- | --- |
| CCN1CCN(c2cc(NC(=O)Cn3cc(-c4cc(F)c(O)c(C(N)=O)c4)c4c(=O)n5c(nc43)CCC5)c(Cl)c(F)n2)[C@@H](C)C1 [I-81, (S)-5-(1-(2-((3-chloro-6-(4-ethyl-2-methyl-piperazin-1-yl)-2-fluoropyridin-4-yl)amino)-2-oxoethyl)-4-oxo-4,6,7,8-tetrahydro-1H-dipyrrolo[1,2-a:2′,3′-d]pyrimidin-3-yl)-3-fluoro-2-hydroxy-benzamide] | 28.3 nM | 1.55 nM | 31.3 nM | – | – |
| C[C@H]1CN(C)CCN1c1cc(NC(=O)Cn2cc(-c3cc(C(N)=O)c(O)c4c3OCO4)c3c(=O)n4c(nc32)CC(C)(C)C4)c(Cl)c(F)n1 [I-92, (S)-7-(1-(2-((3-chloro-6-(2,4-dimethylpipera-zin-1-yl)-2-fluoro-pyridin-4-yl)amino)-2-oxoethyl)-7,7-dimethyl-4-oxo-4,6,7,8-tetra-hydro-1H-dipyrrolo [1,2-a:2′,3′-d]pyrimi-din-3-yl)-4-hydroxy-benzo[d][1,3]dioxole-5-carboxamide] | 12.4 nM | 0.87 nM | 9.22 nM | – | – |
| C[C@H]1CN(CC2CC2)CCN1c1cc(NC(=O)Cn2cc(-c3cc(C(N)=O)c(O)c(F)c3F)c3c(=O)n4c(nc32)CCC4)c(Cl)cn1 [I-6, (S)-5-(1-(2-((5-chloro-2-(4-(cyclopropylmethyl)-2-methylpiperazin-1-yl)pyridin-4-yl)amino)-2-oxoethyl)-4-oxo-4,6,7,8-tetrahydro-1H-dipyrrolo[1,2-a:2′,3′-d]pyrimidin-3-yl)-3,4-difluoro-2-hydroxy-benzamide] | 306 nM | 25.9 nM | 997 nM | – | – |
| CCN1CCN(c2cc(NC(=O)Cn3cc(-c4cc(C(N)=O)c(O)c(F)c4F)c4c(=O)n5c(nc43)CCCCC5)c(Cl)c(F)n2)[C@@H](C)C1 [I-52, (S)-5-(1-(2-((3-chloro-6-(4-ethyl-2-methyl-piperazin-1-yl)-2-fluoropyridin-4-yl)amino)-2-oxoethyl)-4-oxo-4,6,7,8,9,10-hexahydro-1H-pyrrolo [2′,3′:4,5]pyrimido [1,2-a]azepin-3-yl)-3,4-difluoro-2-hydroxy-benzamide] | 820 nM | 76.5 nM | 1670 nM | – | – |
| C[C@H]1CN(C2COC2)CCN1c1cc(NC(=O)Cn2cc(-c3cc(C(N)=O)c(O)c(Cl)c3F)c3c(=O)n4c(nc32)CCC4)c(Cl)c(F)n1 [I-26, (S)-3-chloro-5-(1-(2-((3-chloro-2-fluoro-6-(2-methyl-4-(oxetan-3-yl)piperazin-1-yl)pyridin-4-yl)amino)-2-oxoethyl)-4-oxo-4,6,7,8-tetrahydro-1H-dipyrrolo[1,2-a:2′,3′-d]pyrimidin-3-yl)-4-fluoro-2-hydroxy-benzamide] | 585 nM | 30.2 nM | 549 nM | – | – |
| C[C@H]1CN(C)C[C@H](C)N1c1cc(NC(=O)Cn2cc(-c3cc(F)c(O)c(C(N)=O)c3)c3c(=O)n4c(nc32)CCC4)c(Cl)c(F)n1 [I-83, 5-(1-(2-((3-chloro-2-fluoro-6-((2S,6S)-2,4,6-trimethylpiperazin-1-yl)pyridin-4-yl)amino)-2-oxoethyl)-4-oxo-4,6,7,8-tetrahydro-1H-dipyrrolo[1,2-a:2′,3′-d]pyrimidin-3-yl)-3-fluoro-2-hydroxy-benzamide] | 465 nM | 11.2 nM | 109 nM | – | – |
| COc1c(O)c(C(N)=O)cc(-c2cn(CC(=O)Nc3cc(N4CCOC[C@@H]4C)ncc3Cl)c3nc4n(c(=O)c23)CCC4)c1F [I-18, (S)-5-(1-(2-((5-chloro-2-(3-methylmorpholino)pyridin-4-yl)amino)-2-oxoethyl)-4-oxo-4,6,7,8-tetrahydro-1H-dipyrrolo[1,2-a:2′,3′-d]pyrimidin-3-yl)-4-fluoro-2-hydroxy-3-methoxybenzamide] | – | 34.3 nM | – | 818 nM | 688 nM |
| CO[C@@H](C)CN1CCN(c2cc(NC(=O)Cn3cc(-c4cc(C(N)=O)c(O)c(F)c4F)c4c(=O)n5c(nc43)CCC5)c(Cl)c(F)n2)[C@@H](C)C1 [I-37, 5-(1-(2-((3-chloro-2-fluoro-6-((S)-4-((S)-2-methoxypropyl)-2-methylpiperazin-1-yl)pyridin-4-yl)amino)-2-oxoethyl)-4-oxo-4,6,7,8-tetrahydro-1H-dipyrrolo[1,2-a:2′,3′-d]pyrimidin-3-yl)-3,4-difluoro-2-hydroxy-benzamide] | 109 nM | 14.4 nM | 113 nM | – | – |
| CCOCCN1CCN(c2cc(NC(=O)Cn3cc(-c4cc(C(N)=O)c(O)c(OC)c4OC)c4c(=O)n5c(nc43)CCC5)c(Cl)c(F)n2)[C@@H](C)C1 [I-71, (S)-5-(1-(2-((3-chloro-6-(4-(2-ethoxyethyl)-2-methylpiperazin-1-yl)-2-fluoropyridin-4-yl)amino)-2-oxo-ethyl)-4-oxo-4,6,7,8-tetrahydro-1H-dipyrrolo [1,2-a:2′,3′-d]pyrimidin-3-yl)-2-hydroxy-3,4-dimethoxybenzamide] | 1640 nM | 181 nM | 1370 nM | – | – |
| C[C@H]1COCCN1c1cc(NC(=O)Cn2cc(-c3cc(Cl)c(O)c(C(N)=O)c3)c3c(=O)n4c(nc32)CCC4)c(Cl)cn1 [I-2, (S)-3-chloro-5-(1-(2-((5-chloro-2-(3-methyl-morpholino)pyridin-4-yl)amino)-2-oxoethyl)-4-oxo-4,6,7,8-tetra-hydro-1H-dipyrrolo [1,2-a:2′,3′-d]pyrimidin-3-yl)-2-hydroxy-benzamide] | 95 nM | 4.48 nM | 304 nM | – | – |
| C[C@H]1CN(C2COC2)CCN1c1cc(NC(=O)Cn2cc(-c3cc(C(N)=O)c(O)c(F)c3F)c3c(=O)n4c(nc32)COCC4)c(Cl)c(F)n1 [I-34, (S)-5-(1-(2-((3-chloro-2-fluoro-6-(2-methyl-4-(oxetan-3-yl)piperazin-1-yl)pyridin-4-yl)amino)-2-oxoethyl)-4-oxo-4,6,7,9-tetrahydro-1H-pyrrolo[2′,3′:4,5]pyrimido [2,1-c][1,4]oxazin-3-yl)-3,4-difluoro-2-hydroxy-benzamide] | – | 7.24 nM | – | 155 nM | 177 nM |
| C[C@H]1CN(C2COC2)CCN1c1cc(NC(=O)Cn2cc(-c3cc(C(N)=O)c(O)c(F)c3F)c3c(=O)n4c(nc32)CCCCC4)c(Cl)c(F)n1 [I-50, (S)-5-(1-(2-((3-chloro-2-fluoro-6-(2-methyl-4-(oxetan-3-yl)piperazin-1-yl)pyridin-4-yl)amino)-2-oxo-ethyl)-4-oxo-4,6,7,8,9,10-hexahydro-1H-pyrrolo [2′,3′:4,5]pyrimido [1,2-a]azepin-3-yl)-3,4-difluoro-2-hydroxybenzamide] | 395 nM | 43 nM | 475 nM | – | – |
| C[C@@H](C1CC1)N1CCN(c2cc(NC(=O)Cn3cc(-c4cc(C(N)=O)c(O)c(F)c4F)c4c(=O)n5c(nc43)CCC5)c(Cl)c(F)n2)[C@@H](C)C1 [I-38, 5-(1-(2-((3-chloro-6-((S)-4-((S)-1-cyclo-propylethyl)-2-methyl-piperazin-1-yl)-2-fluoropyridin-4-yl)amino)-2-oxoethyl)-4-oxo-4,6,7,8-tetrahydro-1H-dipyrrolo [1,2-a:2′,3′-d]pyrimidin-3-yl)-3,4-difluoro-2-hydroxybenzamide] | 193 nM | 32.5 nM | 444 nM | – | – |
